Data as given in patent US9376418B2, “Substituted pyridine spleen tyrosine kinase (SYK) inhibitors” (Merck Sharp & Dohme Corp., priority 2012, dated 2016).

Target: T1, recombinant human GST-SYK (Homo sapiens, UniProt P43405)
T1 construct: purchased Carna Biosciences 08-176
Assay: Homogeneous Time-Resolved Fluorescence (HTRF) assay for the recombinant human Syk enzyme
Assay type: biochemical
Settings: HTRF assay, recombinant human GST-SYK; IC50 given as class symbols; read-out: rhSYK Activity
Procedure: Homogeneous Time-Resolved Fluorescence (HTRF) Assay for the Recombinant Human Syk Enzyme
A recombinant GST-hSYK fusion protein was used to measure potency of compounds to inhibit human Syk activity. The recombinant human GST-SYK (Carna Biosciences #08-176) ([…]) was incubated with various concentrations of the inhibitor diluted in DMSO (0.1% final concentration) for 10 minutes at room temperature in 15 mM Tris-HCl (pH 7.5), 0.01% tween 20, 2 mM DTT in 384 well plate format. To initiate the reaction the biotinylated substrate peptide (250 nM final concentration) that contains the phosphorylation site for Syk was added with magnesium (5 mM final concentration) and ATP (25 μM final concentration). Final volume of the reaction was 10 μL. Phosphorylation of the peptide was allowed to proceed for 45′ at room temperature. To quench the reaction and detect the phosphorylated product, 2 nM of a Europium-anti-phosphotyrosine antibody (Perkin Elmer #AD0161) and 70 nM SA-APC (Perkin-Elmer #CR130-100) were added together in 15 mM Tris pH 7.5, 40 mM EDTA, 0.01% tween 20. Final volume of the quenching solution was 10 μL. The resulting HTRF signal was measured after 30 minutes on an EnVision (Perkin-Elmer) reader using a time-resolved fluorescence protocol.

SMILES | IC50 [nM]
OC1(c2cccc(-c3cc(Nc4nccc(C(F)(F)F)n4)cc(N4CCOCC4)c3)n2)CCC1 [Example 1.1, 1-{6-[3-(Morpholin-4-yl)-5-{[4-(trifluoromethyl)pyrimidin-2-yl]amino}phenyl]pyridin-2-yl}cyclobutanol] | 100 to 1000
FC(F)(F)c1ccnc(Nc2cc(-c3ccccn3)cc(N3CCOCC3)c2)n1 [Example 1.2, N-(3-morpholin-4-yl-5-pyridin-2-ylphenyl)-4-(trifluoromethyl)pyrimidin-2-amine] | < 100
FC(F)(F)c1ccnc(Nc2cc(-c3cccc(N4CCOCC4)n3)cc(N3CCOCC3)c2)n1 [Example 1.3, N-[3-morpholin-4-yl-5-(6-morpholin-4-ylpyridin-2-yl)phenyl]-4-(trifluoromethyl)pyrimidin-2-amine] | < 100
OCCN(CCO)c1cccc(-c2cc(Nc3nccc(C(F)(F)F)n3)cc(N3CCOCC3)c2)n1 [Example 1.4, 2,2′-{[6-(3-morpholin-4-yl-5-{[4-(trifluoromethyl)pyrimidin-2-yl]amino}phenyl)pyridin-2-yl]imino}diethanol] | 100 to 1000
Cc1cc(Nc2nccc(C(F)(F)F)n2)cc(-c2ccc(C(=O)O)nc2)c1 [Example 2.1, 5-(3-Methyl-5-{[4-(trifluoromethyl)pyrimidin-2-yl]amino}phenyl)pyridine-2-carboxylic acid] | < 100
COc1ccnc(Nc2cc(C)cc(-c3cccc(CCC(=O)O)n3)c2)n1 [Example 2.2] | < 100
COc1cccc(-c2cccc(Nc3nccc(C(F)(F)F)n3)c2)n1 [Example 2.3, N-[3-(6-methoxypyridin-2-yl)phenyl]-4-(trifluoromethyl)pyrimidin-2-amine] | 1000 to 10000
CCC(O)(CC)c1cccc(-c2cccc(Nc3nccc(C(F)(F)F)n3)c2)n1 [Example 2.4, 3-[6-(3-{[4-(trifluoromethyl)pyrimidin-2-yl]amino}phenyl)pyridin-2-yl]pentan-3-ol] | 100 to 1000

More lines, now with the values ahead:

IC50 [nM] | SMILES
< 100 | CC1(C)CC(O)(c2ccc(-c3cc(F)cc(Nc4nccc(C(F)(F)F)n4)c3)cn2)CCC1C(=O)O (single isomer, unassigned) [Example 9.14, (1R,4S or 1S,4R)-4-[5-(3-fluoro-5-{[4-(trifluoromethyl)pyrimidin-2-yl]amino}phenyl)pyridin-2-yl]-4-hydroxy-2,2-dimethylcyclohexanecarboxylic acid]
< 100 | Cc1cc(Nc2nccc(C(F)(F)F)n2)cc(-c2ccc(C3(O)CCC(C(=O)O)C(C)(C)C3)nc2)c1 (single isomer, unassigned) [Example 9.16, (1R,4S or 1S,4R)-4-hydroxy-2,2-dimethyl-4-[5-(3-methyl-5-{[4-(trifluoromethyl)pyrimidin-2-yl]amino}phenyl)pyridin-2-yl]cyclohexanecarboxylic acid]
< 100 | COc1ccnc(Nc2cc(C)cc(-c3ccc(C(C)(O)[C@H]4CC[C@H](C(=O)O)CC4)nc3)c2)n1 (single isomer, unassigned) [Example 9.17, trans-4-[(1R or 1S)-1-hydroxy-1-(5-{3-[(4-methoxypyrimidin-2-yl)amino]-5-methylphenyl}pyridin-2-yl)ethyl]cyclohexanecarboxylic acid]
< 100 | Cc1cc(Nc2nccc(C3CC3)n2)cc(-c2ccc(C(C)(O)[C@H]3CC[C@H](C(=O)O)CC3)nc2)c1 (single isomer, unassigned) [Example 9.18, trans-4-[(1R or 1S)-1-(5-{3-[(4-cyclopropylpyrimidin-2-yl)amino]-5-methylphenyl}pyridin-2-yl)-1-hydroxyethyl]cyclohexanecarboxylic acid]
< 100 | Cc1cc(Nc2nccc(C3CC3)n2)cc(-c2ccc(C(C)(O)[C@H]3CC[C@H](C(=O)O)CC3)nc2)c1 (single isomer, unassigned) [Example 9.19, trans-4-[(1R or 1S)-1-(5-{3-[(4-cyclopropylpyrimidin-2-yl)amino]-5-methylphenyl}pyridin-2-yl)-1-hydroxyethyl]cyclohexanecarboxylic acid]
< 100 | Cc1cc(Nc2nccc(C)n2)cc(-c2ccc(C(C)(O)[C@H]3CC[C@H](C(=O)O)CC3)nc2)c1 (single isomer, unassigned) [Example 9.26, trans-4-[(1R or 1S)-1-hydroxy-1-(5-{3-methyl-5-[(4-methylpyrimidin-2-yl)amino]phenyl}pyridin-2-yl)ethyl]cyclohexanecarboxylic acid]
< 100 | Cc1cc(Nc2nccc(C)n2)cc(-c2ccc(C(C)(O)[C@H]3CC[C@H](C(=O)O)CC3)nc2)c1 (single isomer, unassigned) [Example 9.27, cis-4-[(1S or 1R)-1-hydroxy-1-(5-{3-methyl-5-[(4-methylpyrimidin-2-yl)amino]phenyl}pyridin-2-yl)ethyl]cyclohexanecarboxylic acid]
< 100 | COc1ccnc(Nc2cc(C)cc(-c3ccc(C(C)(O)[C@H]4CC[C@H](C(=O)O)CC4)nc3)c2)n1 (single isomer, unassigned) [Example 9.28, trans-4-[(1R or 1S)-1-hydroxy-1-(5-{3-[(4-methoxypyrimidin-2-yl)amino]-5-methylphenyl}pyridin-2-yl)ethyl]cyclohexanecarboxylic acid]
< 100 | Cc1cc(Nc2nccc(C(F)F)n2)cc(-c2ccc(C(C)(O)C3CCC(C(=O)O)CC3)nc2)c1 (single isomer, unassigned) [Example 9.29, trans-4-{(1R or 1S)-1-[5-(3-{[4-(difluoromethyl)pyrimidin-2-yl]amino}-5-methylphenyl)pyridin-2-yl]-1-hydroxyethyl}cyclohexanecarboxylic acid]
< 100 | Cc1cc(Nc2nccc(C(F)(F)F)n2)cc(-c2ccc(C(C)(O)[C@H]3CC[C@H](C(=O)O)CC3)nc2)c1 (single isomer, unassigned) [Example 9.30, trans-4-{(1R or 1S)-1-hydroxy-1-[5-(3-methyl-5-{[4-(trifluoromethyl)pyrimidin-2-yl]amino}phenyl)pyridin-2-yl]ethyl}cyclohexanecarboxylic acid]
< 100 | Cc1cc(Nc2nccc(C(F)F)n2)cc(-c2ccc(C(C)(O)C3CCC(C(=O)O)CC3)nc2)c1 (single isomer, unassigned) [Example 9.31, trans-4-{(1R or 1S)-1-[5-(3-{[4-(difluoromethyl)pyrimidin-2-yl]amino}-5-methylphenyl)pyridin-2-yl]-1-hydroxyethyl}cyclohexanecarboxylic acid]
100 to 1000 | CCCCOC(=O)C1CCC(C(C)(O)c2ccc(-c3cc(C)cc(Nc4nccc(OC)n4)c3)cn2)CC1 (single isomer, unassigned) [Example 9.50, butyl trans-4-[(1R or 1S)-1-hydroxy-1-(5-{3-[(4-methoxypyrimidin-2-yl)amino]-5-methylphenyl}pyridin-2-yl)ethyl]cyclohexanecarboxylate]
100 to 1000 | CCCCOC(=O)C1CCC(C(C)(O)c2ccc(-c3cc(C)cc(Nc4nccc(C(F)F)n4)c3)cn2)CC1 (single isomer, unassigned) [Example 9.51, butyl trans-4-{(1R or 1S)-1-[5-(3-{[4-(difluoromethyl)pyrimidin-2-yl]amino}-5-methylphenyl)pyridin-2-yl]-1-hydroxyethyl}cyclohexanecarboxylate]
100 to 1000 | CCCCOC(=O)C1CCC(C(C)(O)c2ccc(-c3cc(C)cc(Nc4nccc(C(F)(F)F)n4)c3)cn2)CC1 (single isomer, unassigned) [Example 9.52, butyl trans-4-{(1R or 1S)-1-hydroxy-1-[5-(3-methyl-5-{[4-(trifluoromethyl)pyrimidin-2-yl]amino}phenyl)pyridin-2-yl]ethyl}cyclohexanecarboxylate]
100 to 1000 | CCCCOC(=O)C1CCC(C(C)(O)c2ccc(-c3cc(C)cc(Nc4ncc(Cl)c(C)n4)c3)cn2)CC1 (single isomer, unassigned) [Example 9.53, butyl trans-4-[(1R or 1S)-1-(5-{3-[(5-chloro-4-methylpyrimidin-2-yl)amino]-5-methylphenyl}pyridin-2-yl)-1-hydroxyethyl]cyclohexanecarboxylate]
< 100 | Cc1cc(Nc2nccc(C(F)(F)F)n2)cc(-c2ccnc(C3(O)CCC(C(=O)O)C(C)(C)C3)c2)c1 (single isomer, unassigned) [Example 9.59, (1S,4R or 1R,4S)-4-hydroxy-2,2-dimethyl-4-[4-(3-methyl-5-{[4-(trifluoromethyl)pyrimidin-2-yl]amino}phenyl)pyridin-2-yl]cyclohexanecarboxylic acid]
< 100 | Cc1cc(Nc2ncc(Cl)c(C)n2)cc(-c2ccc(C(C)(O)C3CCC(C(=O)O)CC3)nc2)c1 (single isomer, unassigned) [Example 9.82, trans-4-[(1R or 1S)-1-(5-{3-[(5-chloro-4-methylpyrimidin-2-yl)amino]-5-methylphenyl}pyridin-2-yl)-1-hydroxyethyl]cyclohexanecarboxylic acid]
< 100 | Cc1cc(Nc2ncc(F)c(C)n2)cc(-c2ccc(C(C)(O)C3CCC(C(=O)O)CC3)nc2)c1 (single isomer, unassigned) [Example 9.83, trans-4-[(1R or 1S)-1-(5-{3-[(5-fluoro-4-methylpyrimidin-2-yl)amino]-5-methylphenyl}pyridin-2-yl)-1-hydroxyethyl]cyclohexanecarboxylic acid]

Same assay, conditions: recombinant GST-hSYK, 25 μM ATP, HTRF; read-out: IC50 (inhibition of human Syk activity)

IC50 [nM] | SMILES
144 | OC1(c2cccc(-c3cc(Nc4nccc(C(F)(F)F)n4)cc(N4CCOCC4)c3)n2)CCC1 [Example 1.1, 1-{6-[3-(Morpholin-4-yl)-5-{[4-(trifluoromethyl)pyrimidin-2-yl]amino}phenyl]pyridin-2-yl}cyclobutanol]
